Test results taken from patent US10400224B2, “Enantioselective modified esterase enzyme and method for the production thereof” (CORPORACIÓN CORPOGEN, priority 2014, dated 2019).

How the values were obtained:
Type in all cases: biochemical, Acidicaldus organivorans USBA-GBX-499
modified esterase 499EST [1] = assay: Effect of organic solvents on the modified esterase; conditions: for % actividad relativa: pNPC8, 55° C., pH 9.0; for esterase activity increased to: solvent at a concentration of 15% and 30%
Experimental: (§1) The activity of the modified enzyme was determined spectrophotometrically at 405 nm in a range of temperatures between 45 and 75° C., using p-nitro phenyl of other chains C6 to C10 (Sigma-Aldrich) as substrate. One unit of esterase activity was defined as the capacity of the enzyme to release 1 μmol min^−1 of p-nitrophenol under the essay conditions. The molar absorbance coefficient was of 16.900 M^−1 cm^−1. The mixture consisted of 448 μl of the Tris-HCl 50 mM buffer at 9.0 pH that contained 50 μl of p-nitrophenyl diluted in isopropanol and 2 μl of the solution stock of the protein. All the assays were made by triplicate and the average was calculated.
(§2) The evaluation of metallic, solvent and detergent ions and inhibitors of the modified enzyme was carried out incubating the enzyme in the presence of each of them for one hour at 30° C. The evaluation established the stability of the referenced enzyme at a control for which the enzyme was in absence of the additive. The result was expressed in percentage of residual activity, being 100% the control.
Effect of organic solvents. The activity of the enzyme was evaluated in presence of different organic solvents. Two concentrations were evaluated, 15 and 30% of 1 butanol, 2 butanol, acetonitrile, acetone, 1-propanol, 2-propanol, methanol, ethanol, glycerol, dimethyl sulfoxide (DMSO), dimethyl formamide (DMF) (Table 3)

499EST = assay: Effect of inhibitors on the modified enzyme 499EST; conditions: inhibitor 5 mM; one hour at 30° C.
Experimental: as §1, §2
(§3) The effect of the detergents, sodium dodecyl sulfate (SDS), Tween 20, Tween 80, Triton X-100, were evaluated at concentrations of 1 and 5% (v/v) (Table 2). In the evaluations it was determined the effect of inhibitors such phenylmethanesulfonyl fluoride-PMSF, ethylenediaminetetraacetic acid, EDTA, 2-mercaptoethanol (2-ME), dithiothreitol (DTT), the evaluated concentration was of 5 mM.

modified esterase 499EST [2] = assay: Effect of metallic ions on the activity of the modified esterase 499EST; conditions: for Actividad relativa (%): pNPC8, 55° C., pH 9.0, control without additives = 100%
Experimental: as §1, §2
It was evaluated the effect of metallic ions on the enzyme activity. The ions evaluated were: CaCl2, FeCl3, MgCl2, CoCl2, NiCl2, ZnCl2, CuCl2 and MnCl2, the concentrations used were 1 mM and 10 mM. The effect of the ions Fe^3+ was evaluated at concentrations of 0.2 mM-10 mM, and its influence on the thermo stability between 50 and 65° C. (Table 1).

modified esterase 499EST [3] = assay: Effect of detergents on the modified esterase 499EST; conditions: for % actividad relativa: pNPC8, 55° C., pH 9.0, control without additives = 100%
Experimental: as §1, §2, §3

## CC#N [Acetonitrilo, acetonitrile]
Modified esterase 499EST [1]; organic solvent 15%
  % actividad relativa: 17.0%
Modified esterase 499EST [1]; organic solvent 30%
  % actividad relativa: 0.0%

## O=S(=O)(F)Cc1ccccc1 [PMSF, phenylmethanesulfonyl fluoride]
499EST
  activity detected: 80%

## O=C(O)CN(CCN(CC(=O)O)CC(=O)O)CC(=O)O [EDTA, ethylenediaminetetraacetic acid]
499EST
  decrease in the relative enzymatic activity: 9%

## 1-butanol
Modified esterase 499EST [1]; organic solvent 15%
  % actividad relativa: 1.5%
Modified esterase 499EST [1]; organic solvent 30%
  % actividad relativa: 0.0%

## CN(C)C=O [DMF, dimethyl formamide]
Modified esterase 499EST [1]; organic solvent 15%
  % actividad relativa: 12.4%
Modified esterase 499EST [1]; organic solvent 30%
  % actividad relativa: 12.4%

## [Cl-].[Cl-].[Zn+2] [Zn^2+, ZnCl2]
Modified esterase 499EST [2]; ion 1 mM
  Actividad relativa (%): 190%
Modified esterase 499EST [2]; ion 10 mM
  Actividad relativa (%): 21%
Modified esterase 499EST [2]; ion 10 mM, listed as Zn^+2
  Actividad relativa (%): highest enzyme inhibition

## CCO [Etanol, ethanol]
Modified esterase 499EST [1]; organic solvent 15%
  % actividad relativa: 22%
Modified esterase 499EST [1]; organic solvent 30%
  % actividad relativa: 12.9%

## [Cl-].[Cl-].[Mg+2] [Mg^2+, MgCl2]
Modified esterase 499EST [2]; ion 1 mM
  Actividad relativa (%): 76%
Modified esterase 499EST [2]; ion 10 mM
  Actividad relativa (%): 3%
Modified esterase 499EST [2]; ion 10 mM, listed as Mg^+2
  Actividad relativa (%): highest enzyme inhibition

## CC(C)O [2-propanol]
Modified esterase 499EST [1]; organic solvent 15%
  % actividad relativa: 80.0%
Modified esterase 499EST [1]; organic solvent 30%
  % actividad relativa: 31.3%

## CO [Metanol, methanol]
Modified esterase 499EST [1]; organic solvent 15%
  % actividad relativa: 3.0%
Modified esterase 499EST [1]; organic solvent 30%
  % actividad relativa: 0.0%

## [Cl][Fe]([Cl])[Cl] [Fe^3+, FeCl3]
Modified esterase 499EST [2]; ion 1 mM
  Actividad relativa (%): 111%
Modified esterase 499EST [2]; ion 10 mM
  Actividad relativa (%): 342%
Modified esterase 499EST [2]; ion concentration from 2 to 10 mM
  increase of the specific activity of the enzyme: up to 3 times

## OCC(O)CO [Glicerol, glycerol]
Modified esterase 499EST [1]; organic solvent 15%
  % actividad relativa: 234.8%
Modified esterase 499EST [1]; organic solvent 30%
  % actividad relativa: 250.3%
Modified esterase 499EST [1]
  esterase activity increased to: 250%

## O[C@H](CS)[C@H](O)CS (racemic) [DTT, dithiothreitol]
499EST
  inhibition of the enzymatic activity: totally inhibits

## [Cl-].[Cl-].[Co+2] [Co^2+, CoCl2]
Modified esterase 499EST [2]; ion 1 mM
  Actividad relativa (%): 74%
Modified esterase 499EST [2]; ion 10 mM
  Actividad relativa (%): 23%
Modified esterase 499EST [2]; ion 10 mM, listed as Co^+2
  Actividad relativa (%): highest enzyme inhibition

## [Cl][Cu][Cl] [Cu^2+, CuCl2]
Modified esterase 499EST [2]; ion 1 mM
  Actividad relativa (%): 16%
Modified esterase 499EST [2]; ion 10 mM
  Actividad relativa (%): 0%
Modified esterase 499EST [2]; ion 10 mM, listed as Cu^+2
  Actividad relativa (%): highest enzyme inhibition

## C[S+](C)[O-] [DMSO, dimethyl sulfoxide]
Modified esterase 499EST [1]; organic solvent 15%
  % actividad relativa: 180.0%
Modified esterase 499EST [1]; organic solvent 30%
  % actividad relativa: 200.2%
Modified esterase 499EST [1]
  esterase activity increased to: 200%

## OCCS [β-mercaptoethanol, 2-mercaptoethanol]
499EST
  decrease in the relative enzymatic activity: 12%

## CCCCCCCCCCCCOS(=O)(=O)[O-].[Na+] [SDS, sodium dodecyl sulfate]
Modified esterase 499EST [3]; 1 and 5% (v/v)
  effect of detergent on lipolytic activity: strongly inhibits
Modified esterase 499EST [3]; detergent 1%
  % actividad relativa: 8%
Modified esterase 499EST [3]; detergent 5%
  % actividad relativa: 6%

## CCCO [1-propanol]
Modified esterase 499EST [1]; organic solvent 15%
  % actividad relativa: 26.8%
Modified esterase 499EST [1]; organic solvent 30%
  % actividad relativa: 24.81%

## CC(C)=O [Acetona, acetone]
Modified esterase 499EST [1]; organic solvent 15%
  % actividad relativa: 72.0%
Modified esterase 499EST [1]; organic solvent 30%
  % actividad relativa: 9.7%

## [Ca+2].[Cl-].[Cl-] [Ca^2+, CaCl2]
Modified esterase 499EST [2]; ion 1 mM
  Actividad relativa (%): 9%
Modified esterase 499EST [2]; ion 10 mM
  Actividad relativa (%): 7%
Modified esterase 499EST [2]; ion 10 mM, listed as Ca^+2
  Actividad relativa (%): highest enzyme inhibition

## CCC(C)O (centres unmarked) [2-butanol]
Modified esterase 499EST [1]; organic solvent 15%
  % actividad relativa: 16.3%
Modified esterase 499EST [1]; organic solvent 30%
  % actividad relativa: 14.7%

## [Cl][Mn][Cl] [Mn^2+, MnCl2]
Modified esterase 499EST [2]; ion 1 mM
  Actividad relativa (%): 252%
Modified esterase 499EST [2]; ion 10 mM
  Actividad relativa (%): 127%

## CCCCCCCC/C=C\CCCCCCCC(=O)OCCOCC(OCCO)C1OCC(OCCO)C1OCCO (centres unmarked) [Tween 80]
Modified esterase 499EST [3]; detergent 1%
  % actividad relativa: 85%
Modified esterase 499EST [3]; detergent 5%
  % actividad relativa: 32%
